Results taken from the NIST ThermoML archive (doi:10.1016/j.fluid.2018.09.024).
± gives the expanded uncertainty stated by the source.

Test: activity coefficient (dimensionless); of the first substance listed, at infinite dilution; xn = mol fraction of the nth substance listed
Conditions: 101.33 kPa, Liquid, Chromatography, x1 = 0

Row | Structure (SMILES) | activity coefficient (328.15 K) | activity coefficient (338.15 K) | activity coefficient (348.15 K) | activity coefficient (358.15 K) | activity coefficient (368.15 K) | activity coefficient (378.15 K) | activity coefficient (318.15 K)
1 | CCOC(C)=O [ethyl acetate] + CCCCCCCCCCCC[N+](C)(C)CCOc1ccccc1.N#C[N-]C#N | 1.2 ± 0.08 | 1.24 ± 0.08 | 1.27 ± 0.08 | 1.31 ± 0.09 | 1.34 ± 0.09 | 1.37 ± 0.09 | 
2 | C=CCCC [1-pentene] + CCCCCCCCCCCC[N+](C)(C)CCOc1ccccc1.N#C[N-]C#N | 3.3 ± 0.22 | 3.36 ± 0.23 | 3.42 ± 0.23 | 3.48 ± 0.24 | 3.54 ± 0.24 | 3.61 ± 0.25 | 
3 | c1ccncc1 [pyridine] + CCCCCCCCCCCC[N+](C)(C)CCOc1ccccc1.O=S(=O)([N-]S(=O)(=O)C(F)(F)F)C(F)(F)F | 0.296 ± 0.031 | 0.313 ± 0.031 | 0.33 ± 0.032 | 0.346 ± 0.032 | 0.363 ± 0.033 |  | 0.278 ± 0.03
4 | CCOC(C)(C)C [2-ethoxy-2-methylpropane] + CCCCCCCCCCCC[N+](C)(C)CCOc1ccccc1.O=S(=O)([N-]S(=O)(=O)C(F)(F)F)C(F)(F)F | 1.87 ± 0.13 | 1.94 ± 0.13 | 2.01 ± 0.14 | 2.09 ± 0.14 | 2.16 ± 0.15 |  | 1.8 ± 0.12
5 | CCCC(C)=O [pentan-2-one] + CCCCCCCCCCCC[N+](C)(C)CCOc1ccccc1.O=S(=O)([N-]S(=O)(=O)C(F)(F)F)C(F)(F)F | 0.41 ± 0.034 | 0.434 ± 0.035 | 0.458 ± 0.036 | 0.481 ± 0.037 | 0.503 ± 0.038 |  | 0.386 ± 0.033
6 | C=Cc1ccccc1 [styrene] + CCCCCCCCCCCC[N+](C)(C)CCOc1ccccc1.O=S(=O)([N-]S(=O)(=O)C(F)(F)F)C(F)(F)F | 0.672 ± 0.046 | 0.711 ± 0.047 | 0.75 ± 0.049 | 0.788 ± 0.051 | 0.83 ± 0.05 |  | 0.632 ± 0.044
7 | CCCc1ccccc1 [propylbenzene] + CCCCCCCCCCCC[N+](C)(C)CCOc1ccccc1.N#C[N-]C#N | 1.71 ± 0.11 | 1.77 ± 0.12 | 1.83 ± 0.12 | 1.89 ± 0.13 | 1.96 ± 0.13 | 2.01 ± 0.14 | 
8 | C=CCCCCC [1-heptene] + CCCCCCCCCCCC[N+](C)(C)CCOc1ccccc1.N#C[N-]C#N | 4.19 ± 0.29 | 4.28 ± 0.29 | 4.36 ± 0.3 | 4.43 ± 0.3 | 4.51 ± 0.31 | 4.59 ± 0.31 | 
9 | CC(C)c1ccccc1 [isopropylbenzene] + CCCCCCCCCCCC[N+](C)(C)CCOc1ccccc1.O=S(=O)([N-]S(=O)(=O)C(F)(F)F)C(F)(F)F | 1.19 ± 0.08 | 1.24 ± 0.08 | 1.29 ± 0.08 | 1.34 ± 0.09 | 1.39 ± 0.09 |  | 1.14 ± 0.07
10 | c1ccccc1 [benzene] + CCCCCCCCCCCC[N+](C)(C)CCOc1ccccc1.N#C[N-]C#N | 0.835 ± 0.054 | 0.87 ± 0.056 | 0.905 ± 0.057 | 0.938 ± 0.059 | 0.972 ± 0.061 | 1.01 ± 0.06 | 
11 | C=CCCCCCCCC [1-decene] + CCCCCCCCCCCC[N+](C)(C)CCOc1ccccc1.N#C[N-]C#N | 6.45 ± 0.44 | 6.67 ± 0.45 | 6.83 ± 0.47 | 6.99 ± 0.48 | 7.14 ± 0.49 | 7.22 ± 0.49 | 
12 | CCC(C)(C)C [2,2-dimethylbutane] + CCCCCCCCCCCC[N+](C)(C)CCOc1ccccc1.N#C[N-]C#N | 5.84 ± 0.4 | 5.95 ± 0.41 | 6.05 ± 0.41 | 6.14 ± 0.42 | 6.25 ± 0.43 | 6.35 ± 0.43 | 
13 | CCC(C)(C)C [2,2-dimethylbutane] + CCCCCCCCCCCC[N+](C)(C)CCOc1ccccc1.O=S(=O)([N-]S(=O)(=O)C(F)(F)F)C(F)(F)F | 2.91 ± 0.2 | 2.99 ± 0.2 | 3.07 ± 0.21 | 3.15 ± 0.21 | 3.24 ± 0.22 |  | 2.82 ± 0.19
14 | O [water] + CCCCCCCCCCCC[N+](C)(C)CCOc1ccccc1.O=S(=O)([N-]S(=O)(=O)C(F)(F)F)C(F)(F)F | 3.32 ± 0.23 | 3.04 ± 0.21 | 2.8 ± 0.19 | 2.59 ± 0.18 | 2.4 ± 0.16 |  | 3.65 ± 0.25
15 | Cc1ccc(C)cc1 [1,4-dimethylbenzene] + CCCCCCCCCCCC[N+](C)(C)CCOc1ccccc1.N#C[N-]C#N | 1.38 ± 0.09 | 1.44 ± 0.09 | 1.5 ± 0.1 | 1.57 ± 0.1 | 1.63 ± 0.11 | 1.69 ± 0.11 | 
